Test results published in patent US20220281848A1, “PYRAZOLE-SUBSTITUTED PYRROLIDINONES AS HERBICIDES” (FMC Corporation, priority 2019, published 2022).

Assays:
Type in all cases: in vivo
[1] = test system: barnyardgrass (Echinochloa crus-galli, ECHCG); assay: Test A pre-emergence, barnyardgrass; conditions: after 13 d
Procedure, shortened: (§1)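 Each compound is applied pre-emergence at 15.625, 62.5 or 250 g/ha, one day after seeds are sown in standard soil. Plants are then grown in a glasshouse at 24/16° C. with 14 h light and 65% humidity, and injury is scored 0–100 at 13 d.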

corn (Zea mays, ZEAMX) = assay: Test A pre-emergence, corn; conditions: after 13 d
Procedure, shortened: as §1

wheat = assay: Test D post-emergence, wheat seed treated with a herbicide safener; conditions: "Cereals" Postemergent
Description: (§2) A formulation containing 50 g/L of the test chemical was prepared by dissolving the active ingredient in a mixture of organic solvents and emulsifier, details of which are provided in the table. This formulation was then mixed with a small, variable amount of acetone to aid dissolution, before addition of a 0.2% v/v aqueous solution of an adjuvant, as the aqueous diluent, to form an aqueous spray solution which contains a predetermined concentration of the active ingredient.
(§3) This aqueous spray solution was then sprayed onto plants including maize and wheat that had been seed treated with a herbicide safener, after one day's cultivation (for pre-emergence) or after about 12 days' cultivation (for post-emergence). The plants were grown from seeds sown in standard soil, placed in a glasshouse under controlled conditions (at 24/18° C. or 20/16° C., day/night; 16 h light; 65% humidity). After spray application the plants were then grown in a glasshouse under the same conditions and watered twice daily. After 15 d for post-emergence and 20 DAA for pre-emergence the test was evaluated (100=total damage to plant; 0=no damage to plant).

maize [2] = assay: Test D post-emergence, maize seed treated with a herbicide safener
Description: as §2, §3

maize [3] = assay: Test D pre-emergence, maize seed treated with a herbicide safener; conditions: ZEAMX, preemergent, 20 DAA
Description: as §2, §3

[4] = Rates 130, evaluated after 15 d
[5] = Rates 250, evaluated after 15 d
[6] = Rates 500, evaluated after 15 d

Row | Structure (SMILES) | damage to plant (100=total damage; 0=no damage) ECHCG ([1]; Pre-Emergence at 62.5 g/ha) | damage to plant (100=total damage; 0=no damage) ECHCG ([1]; Pre-Emergence at 250 g/ha) | damage to plant (100=total damage; 0=no damage) ZEAMX (corn (Zea mays, ZEAMX); Pre-Emergence at 62.5 g/ha) | damage to plant (100=total damage; 0=no damage) ZEAMX (corn (Zea mays, ZEAMX); Pre-Emergence at 250 g/ha) | TRZAW damage rating (100=total damage to plant; 0=no damage to plant) (wheat; [4]) | TRZAW damage rating (100=total damage to plant; 0=no damage to plant) (wheat; [5]) | TRZAW damage rating (100=total damage to plant; 0=no damage to plant) (wheat; [6]) | damage to plant (100=total damage to plant; 0=no damage to plant), ZEAMX (maize [2]; rate 130, evaluated after 15 d) | damage to plant (100=total damage to plant; 0=no damage to plant), ZEAMX (maize [2]; rate 250, evaluated after 15 d) | damage to plant (100=total damage to plant; 0=no damage to plant), ZEAMX (maize [2]; rate 500, evaluated after 15 d) | damage to plant (100=total damage to plant; 0=no damage to plant), ZEAMX (maize [3]; rate 15) | damage to plant (100=total damage to plant; 0=no damage to plant), ZEAMX (maize [3]; rate 30) | damage to plant (100=total damage to plant; 0=no damage to plant), ZEAMX (maize [3]; rate 60) | damage to plant (100=total damage to plant; 0=no damage to plant), ZEAMX (maize [3]; rate 130) | damage to plant (100=total damage to plant; 0=no damage to plant), ZEAMX (maize [3]; rate 250) | damage to plant (100=total damage to plant; 0=no damage to plant), ZEAMX (maize [3]; rate 500) | damage to plant (100=total damage; 0=no damage) ECHCG ([1]; Pre-Emergence at 15.625 g/ha) | damage to plant (100=total damage; 0=no damage) ZEAMX (corn (Zea mays, ZEAMX); Pre-Emergence at 15.625 g/ha)
1 | CN1CC(c2cc(C(F)(F)F)n(C)n2)C(C(=O)Nc2ccc(F)cc2C(C)(F)F)C1=O (racemic) [Compound 26] | 90 | 90 | 70 | 90 | 0 | 0 | 40 | 0 | 0 | 10 | 0 | 0 | 0 | 0 | 0 | 0 | – | –
2 | CN1CC(c2cc(C(F)(F)F)n(C)n2)C(C(=O)Nc2cccc(F)c2F)C1=O (racemic) [Compound 3] | 100 | 100 | 60 | 90 | 0 | 0 | 50 | 0 | 0 | 10 | 0 | 0 | 0 | 0 | 0 | 0 | 100 | 0
3 | CN1CC(c2cc(C(F)(F)F)n(C)n2)C(C(=O)Nc2cccc(F)c2C(F)(F)F)C1=O (racemic) [Compound 19] | 90 | 90 | 0 | 20 | 0 | 0 | 20 | 0 | 0 | 30 | 0 | 0 | 0 | 0 | 0 | 0 | 70 | 0
4 | CCn1nc([C@@H]2CN(C)C(=O)[C@H]2C(=O)Nc2cccc(F)c2F)c2cccc(F)c21 [Compound 14] | 80 | 90 | 10 | 70 | 10 | 70 | 80 | 0 | 0 | 20 | 0 | 0 | 0 | 10 | 20 | 50 | 60 | 20
